Six compounds from PubChem BioAssay AID2767 (The Scripps Research Institute Molecular Screening Center, 2010) can be followed below.

Activity calls are given as the source filed them. No rule for the calls is given here.

For the experiment, the target named is TEM-1 beta-lactamase (Escherichia coli) (UniProt Q932Y6). Nature of the experiment: TEM-1 beta-lactamase inhibitor potency, late-stage follow-up, counter-screen for dual metallo-beta-lactamase inhibitor project, biochemical, epi-absorbance, IC50 (AID 2767). The following applies: nitrocefin absorbance.
TEM-1 beta-lactamase (Escherichia coli), sequence (Q932Y6 1-286): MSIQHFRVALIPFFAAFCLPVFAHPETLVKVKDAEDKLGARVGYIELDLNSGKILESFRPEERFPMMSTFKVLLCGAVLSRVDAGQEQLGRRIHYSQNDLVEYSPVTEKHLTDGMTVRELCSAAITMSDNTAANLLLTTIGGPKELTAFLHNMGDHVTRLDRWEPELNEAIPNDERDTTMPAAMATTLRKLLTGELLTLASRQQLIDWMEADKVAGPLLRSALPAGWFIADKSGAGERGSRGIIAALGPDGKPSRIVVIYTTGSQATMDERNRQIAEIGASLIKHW
`O=C(O)c1ccc[c]([Hg+])c1`: the IC50 (in general, the concentration needed to halve the response being measured) is > 59.6 µM (inactive).
For `[Hg+][c]1ccccc1` the value was > 59.6 µM (inactive).
For `O=C(O)c1cc[c]([Hg][Cl])cc1` the value was > 59.6 µM (inactive); for `CC(=O)Nc1cc[c]([Hg+])cc1`, > 59.6 µM (inactive); for `COc1cccc[c]1[Hg+]`, > 59.6 µM (inactive).
Turning to `Cc1cc[c]([Hg+])cc1`, the IC50 is > 59.6 µM (inactive).
